The molecules below were run on Mus musculus (assay: Analgesic activity against acetic acid-induced Kunming writhing mouse model assessed as inhibition of writhing at 10 mg/kg, sc pretreated with compound for 15 mins followed by acetic acid addition and measured after 15 mins relative to control). Conditions: 0.5 h, time 30 min.
Type: functional
`CCN1C[C@]2(OC(=O)c3ccccc3NC(=O)c3cccc(C#N)c3)CC[C@H](OC)[C@]34C1[C@H](C[C@H]23)[C@@]1(O)C[C@H](OC)[C@H]2C[C@@H]4[C@]1(O)[C@H]2OC` gave an inhibition in vivo at 10 mg/kg of 10.7%.
`CCN1C[C@]2(OC(=O)c3ccccc3NC(=O)c3cccc(OC)c3)CC[C@H](OC)[C@]34C1[C@H](C[C@H]23)[C@@]1(O)C[C@H](OC)[C@H]2C[C@@H]4[C@]1(O)[C@H]2OC` was tested, and the inhibition in vivo at 10 mg/kg was 0%.
With `CCN1C[C@]2(OC(=O)c3ccccc3NC(=O)c3ccccc3F)CC[C@H](OC)[C@]34C1[C@H](C[C@H]23)[C@@]1(O)C[C@H](OC)[C@H]2C[C@@H]4[C@]1(O)[C@H]2OC` the inhibition in vivo at 10 mg/kg was 17.7%.
Work on `CCN1C[C@]2(OC(=O)c3ccccc3NC(=O)c3ccc(Br)cc3)CC[C@H](OC)[C@]34C1[C@H](C[C@H]23)[C@@]1(O)C[C@H](OC)[C@H]2C[C@@H]4[C@]1(O)[C@H]2OC` yielded an inhibition in vivo at 10 mg/kg of 39.4%.
In the case of `CCN1C[C@]2(OC(=O)c3ccccc3NS(=O)(=O)c3ccc(Cl)cc3)CC[C@H](OC)[C@]34C1[C@H](C[C@H]23)[C@@]1(O)C[C@H](OC)[C@H]2C[C@@H]4[C@]1(O)[C@H]2OC`, the inhibition in vivo at 10 mg/kg is reported as 11.7%.
With `CCN1C[C@]2(OC(=O)c3ccccc3NC(=O)c3ccccc3Br)CC[C@H](OC)[C@]34C1[C@H](C[C@H]23)[C@@]1(O)C[C@H](OC)[C@H]2C[C@@H]4[C@]1(O)[C@H]2OC` the inhibition in vivo at 10 mg/kg was 0%.
`CCN1C[C@]2(OC(=O)c3ccccc3NC(=O)c3cnc(Cl)cn3)CC[C@H](OC)[C@]34C1[C@H](C[C@H]23)[C@@]1(O)C[C@H](OC)[C@H]2C[C@@H]4[C@]1(O)[C@H]2OC` showed an inhibition in vivo at 10 mg/kg of 31.5%.
Molecule `CCN1C[C@]2(OC(=O)c3ccccc3NC(=O)c3ccc(C)cc3C)CC[C@H](OC)[C@]34C1[C@H](C[C@H]23)[C@@]1(O)C[C@H](OC)[C@H]2C[C@@H]4[C@]1(O)[C@H]2OC` has an inhibition in vivo at 10 mg/kg of 0%.
Molecule `CCN1C[C@]2(OC(=O)c3ccccc3NC(=O)C3CCCC3)CC[C@H](OC)[C@]34C1[C@H](C[C@H]23)[C@@]1(O)C[C@H](OC)[C@H]2C[C@@H]4[C@]1(O)[C@H]2OC` has an inhibition in vivo at 10 mg/kg of 56.9%.
Work on `CCN1C[C@]2(OC(=O)c3ccccc3NS(=O)(=O)CCCCl)CC[C@H](OC)[C@]34C1[C@H](C[C@H]23)[C@@]1(O)C[C@H](OC)[C@H]2C[C@@H]4[C@]1(O)[C@H]2OC` yielded an inhibition in vivo at 10 mg/kg of 32.1%.
In the case of `CCN1C[C@]2(OC(=O)c3ccccc3NC(=O)c3ccc(OC(F)(F)F)cc3)CC[C@H](OC)[C@]34C1[C@H](C[C@H]23)[C@@]1(O)C[C@H](OC)[C@H]2C[C@@H]4[C@]1(O)[C@H]2OC`, the inhibition in vivo at 10 mg/kg is reported as 10%.
In the case of `CCN1C[C@]2(OC(=O)c3ccccc3NC(=O)c3cccc(Cl)c3)CC[C@H](OC)[C@]34C1[C@H](C[C@H]23)[C@@]1(O)C[C@H](OC)[C@H]2C[C@@H]4[C@]1(O)[C@H]2OC`, the inhibition in vivo at 10 mg/kg is reported as 17.5%.
In the case of `CCN1C[C@]2(OC(=O)c3ccccc3NC(=O)c3ccc(Cl)cc3Cl)CC[C@H](OC)[C@]34C1[C@H](C[C@H]23)[C@@]1(O)C[C@H](OC)[C@H]2C[C@@H]4[C@]1(O)[C@H]2OC`, the inhibition in vivo at 10 mg/kg is reported as 31.2%.
In the case of `CCN1C[C@]2(OC(=O)c3ccccc3NC(=O)c3ccccc3Cl)CC[C@H](OC)[C@]34C1[C@H](C[C@H]23)[C@@]1(O)C[C@H](OC)[C@H]2C[C@@H]4[C@]1(O)[C@H]2OC`, the inhibition in vivo at 10 mg/kg is reported as 4.4%.
With `CCN1C[C@]2(OC(=O)c3ccccc3NC(=O)c3ccccc3)CC[C@H](OC)[C@]34C1[C@H](C[C@H]23)[C@@]1(O)C[C@H](OC)[C@H]2C[C@@H]4[C@]1(O)[C@H]2OC` the inhibition in vivo at 10 mg/kg was 0%.
Molecule `CCN1C[C@]2(OC(=O)c3ccccc3NC(=O)c3ccccc3N(C)C)CC[C@H](OC)[C@]34C1[C@H](C[C@H]23)[C@@]1(O)C[C@H](OC)[C@H]2C[C@@H]4[C@]1(O)[C@H]2OC` has an inhibition in vivo at 10 mg/kg of 34.2%.
In the case of `CCCCCCC(=O)Nc1ccccc1C(=O)O[C@@]12CC[C@H](OC)[C@]34C([C@H](C[C@H]13)[C@@]1(O)C[C@H](OC)[C@H]3C[C@@H]4[C@]1(O)[C@H]3OC)N(CC)C2`, the inhibition in vivo at 10 mg/kg is reported as 54.2%.
Work on `CCN1C[C@]2(OC(=O)c3ccccc3NS(=O)(=O)CC)CC[C@H](OC)[C@]34C1[C@H](C[C@H]23)[C@@]1(O)C[C@H](OC)[C@H]2C[C@@H]4[C@]1(O)[C@H]2OC` yielded an inhibition in vivo at 10 mg/kg of 4%.
For `CCN1C[C@]2(OC(=O)c3ccccc3NC(=O)c3ccc(Br)s3)CC[C@H](OC)[C@]34C1[C@H](C[C@H]23)[C@@]1(O)C[C@H](OC)[C@H]2C[C@@H]4[C@]1(O)[C@H]2OC`, the inhibition in vivo at 10 mg/kg was 12.8%.
In the case of `CCN1C[C@]2(OC(=O)c3ccccc3NC(=O)c3ccc(Cl)cc3)CC[C@H](OC)[C@]34C1[C@H](C[C@H]23)[C@@]1(O)C[C@H](OC)[C@H]2C[C@@H]4[C@]1(O)[C@H]2OC`, the inhibition in vivo at 10 mg/kg is reported as 31.6%.
Molecule `CCN1C[C@]2(OC(=O)c3ccccc3NS(C)(=O)=O)CC[C@H](OC)[C@]34C1[C@H](C[C@H]23)[C@@]1(O)C[C@H](OC)[C@H]2C[C@@H]4[C@]1(O)[C@H]2OC` has an inhibition in vivo at 10 mg/kg of 22.8%.
In the case of `CCN1C[C@]2(OC(=O)c3ccccc3NC(=O)c3cccc(Br)c3)CC[C@H](OC)[C@]34C1[C@H](C[C@H]23)[C@@]1(O)C[C@H](OC)[C@H]2C[C@@H]4[C@]1(O)[C@H]2OC`, the inhibition in vivo at 10 mg/kg is reported as 3.4%.
In the case of `CCN1C[C@]2(OC(=O)c3ccccc3NC(=O)C3CCCO3)CC[C@H](OC)[C@]34C1[C@H](C[C@H]23)[C@@]1(O)C[C@H](OC)[C@H]2C[C@@H]4[C@]1(O)[C@H]2OC` (stereo not given in full), the inhibition in vivo at 10 mg/kg is reported as 21.8%.
`CCN1C[C@]2(OC(=O)c3ccccc3NC(=O)c3ccc([N+](=O)[O-])cc3)CC[C@H](OC)[C@]34C1[C@H](C[C@H]23)[C@@]1(O)C[C@H](OC)[C@H]2C[C@@H]4[C@]1(O)[C@H]2OC` was tested, and the inhibition in vivo at 10 mg/kg was 27.2%.
`CCCOc1ccccc1C(=O)Nc1ccccc1C(=O)O[C@@]12CC[C@H](OC)[C@]34C([C@H](C[C@H]13)[C@@]1(O)C[C@H](OC)[C@H]3C[C@@H]4[C@]1(O)[C@H]3OC)N(CC)C2` was tested, and the inhibition in vivo at 10 mg/kg was 19.2%.
`CCN1C[C@]2(OC(=O)c3ccccc3NC(=O)C3CCCCC3)CC[C@H](OC)[C@]34C1[C@H](C[C@H]23)[C@@]1(O)C[C@H](OC)[C@H]2C[C@@H]4[C@]1(O)[C@H]2OC` showed an inhibition in vivo at 10 mg/kg of 34.5%.
Work on `CCN1C[C@]2(OC(=O)c3ccccc3NS(=O)(=O)c3ccc(F)cc3)CC[C@H](OC)[C@]34C1[C@H](C[C@H]23)[C@@]1(O)C[C@H](OC)[C@H]2C[C@@H]4[C@]1(O)[C@H]2OC` yielded an inhibition in vivo at 10 mg/kg of 14.7%.
With `CCN1C[C@]2(OC(=O)c3ccccc3NC(=O)c3ccc(Cl)c(Cl)c3)CC[C@H](OC)[C@]34C1[C@H](C[C@H]23)[C@@]1(O)C[C@H](OC)[C@H]2C[C@@H]4[C@]1(O)[C@H]2OC` the inhibition in vivo at 10 mg/kg was 10.4%.
Work on `CCc1ccc(C(=O)Nc2ccccc2C(=O)O[C@@]23CC[C@H](OC)[C@]45C([C@H](C[C@H]24)[C@@]2(O)C[C@H](OC)[C@H]4C[C@@H]5[C@]2(O)[C@H]4OC)N(CC)C3)cc1` yielded an inhibition in vivo at 10 mg/kg of 26.7%.
For `CCN1C[C@]2(OC(=O)c3ccccc3NC(=O)c3cccc(C)c3)CC[C@H](OC)[C@]34C1[C@H](C[C@H]23)[C@@]1(O)C[C@H](OC)[C@H]2C[C@@H]4[C@]1(O)[C@H]2OC`, the inhibition in vivo at 10 mg/kg was 36.9%.
`CCN1C[C@]2(OC(=O)c3ccccc3NC(=O)c3ccc(C#N)cc3)CC[C@H](OC)[C@]34C1[C@H](C[C@H]23)[C@@]1(O)C[C@H](OC)[C@H]2C[C@@H]4[C@]1(O)[C@H]2OC` gave an inhibition in vivo at 10 mg/kg of 31.5%.
In the case of `CCCCc1ccc(C(=O)Nc2ccccc2C(=O)O[C@@]23CC[C@H](OC)[C@]45C([C@H](C[C@H]24)[C@@]2(O)C[C@H](OC)[C@H]4C[C@@H]5[C@]2(O)[C@H]4OC)N(CC)C3)cc1`, the inhibition in vivo at 10 mg/kg is reported as 28.2%.
In the case of `CCN1C[C@]2(OC(=O)c3ccccc3NC(=O)c3ccc(Cl)s3)CC[C@H](OC)[C@]34C1[C@H](C[C@H]23)[C@@]1(O)C[C@H](OC)[C@H]2C[C@@H]4[C@]1(O)[C@H]2OC`, the inhibition in vivo at 10 mg/kg is reported as 27.8%.
With `CCN1C[C@]2(OC(=O)c3ccccc3NC(=O)C3CCOC3)CC[C@H](OC)[C@]34C1[C@H](C[C@H]23)[C@@]1(O)C[C@H](OC)[C@H]2C[C@@H]4[C@]1(O)[C@H]2OC` (stereo not given in full) the inhibition in vivo at 10 mg/kg was 34%.
With `CCN1C[C@]2(OC(=O)c3ccccc3NC(=O)c3ccc(OC)c(OC)c3)CC[C@H](OC)[C@]34C1[C@H](C[C@H]23)[C@@]1(O)C[C@H](OC)[C@H]2C[C@@H]4[C@]1(O)[C@H]2OC` the inhibition in vivo at 10 mg/kg was 34.6%.
With `CCN1C[C@]2(OC(=O)c3ccccc3NC(=O)c3ccc(S(C)(=O)=O)cc3)CC[C@H](OC)[C@]34C1[C@H](C[C@H]23)[C@@]1(O)C[C@H](OC)[C@H]2C[C@@H]4[C@]1(O)[C@H]2OC` the inhibition in vivo at 10 mg/kg was 8.4%.
For `CCN1C[C@]2(OC(=O)c3ccccc3NC(=O)c3ccc(C(C)C)cc3)CC[C@H](OC)[C@]34C1[C@H](C[C@H]23)[C@@]1(O)C[C@H](OC)[C@H]2C[C@@H]4[C@]1(O)[C@H]2OC`, the inhibition in vivo at 10 mg/kg was 21%.
`CCN1C[C@]2(OC(=O)c3ccccc3NC(=O)c3ccc(C(=O)OC)cc3)CC[C@H](OC)[C@]34C1[C@H](C[C@H]23)[C@@]1(O)C[C@H](OC)[C@H]2C[C@@H]4[C@]1(O)[C@H]2OC` showed an inhibition in vivo at 10 mg/kg of 36.4%.
Work on `CCN1C[C@]2(OC(=O)c3ccccc3NC(=O)c3cccc(F)c3)CC[C@H](OC)[C@]34C1[C@H](C[C@H]23)[C@@]1(O)C[C@H](OC)[C@H]2C[C@@H]4[C@]1(O)[C@H]2OC` yielded an inhibition in vivo at 10 mg/kg of 27.5%.
For `CCN1C[C@]2(OC(=O)c3ccccc3NC(=O)c3ccc(I)cc3)CC[C@H](OC)[C@]34C1[C@H](C[C@H]23)[C@@]1(O)C[C@H](OC)[C@H]2C[C@@H]4[C@]1(O)[C@H]2OC`, the inhibition in vivo at 10 mg/kg was 31.1%.

Source: ChEMBL document CHEMBL5352433, “Design, synthesis, and biological evaluation of low-toxic lappaconitine derivatives as potential analgesics” (Eur J Med Chem, 2022)
